Test results as given in ChEMBL document CHEMBL3885861, “Open TG-GATES”.

Species on record: Rattus norvegicus
Assay: Open TG-GATES - Regimen: Single
Type: toxicity, organism-based, Sprague-Dawley
Parameters: regimen Single, gender Male, age 6 weeks
Details: in vivo, po, route gavage; for APTT / Bas / Eos / Fbg / Hb / Ht / Lym / MCV / Mono / PT / Plat / RBC / Ret / WBC / MCHC / Neu: tissue Blood; for ALP / ALT / AST / BUN / CRE / Ca / Cl / DBIL / GLC / IP / K / LDH / Na / PL / RALB / TBIL / TC / TG / TP / gamma-GTP: tissue Plasma
[1] = 0 mg/kg, 3 h, dose level Control
[2] = 0 mg/kg, 6 h, dose level Control
[3] = 0 mg/kg, 9 h, dose level Control
[4] = 0 mg/kg, 24 h, dose level Control

How did the APTT [1] turn out when `O=C(O)c1cccnc1` [NIACIN] was run?
Its APTT is 24 s.

What about the Bas [1] of the same compound?
Its Bas is 0%.

And the Eos [1]?
The Eos was 0.8%.

What about the Fbg [1] of the same compound?
The Fbg was 311.4 mg/dL.

And the Hb [1]?
The Hb was 13.5 g/dL.

What about the Ht [1] of the same compound?
The Ht was 40.1%.

What about the Lym [1] of the same compound?
Its Lym is 81.2%.

What about the MCV [1] of the same compound?
Its MCV is 63.7 fL.

What about the Mono [1] of the same compound?
The Mono was 2.2%.

And the PT [1]?
Its PT is 16.4 s.

What about the Plat [1] of the same compound?
The Plat was 118.4 x10_4/uL.

What about the RBC [1] of the same compound?
Its RBC is 630 x10_4/ul.

What about the Ret [1] of the same compound?
Its Ret is 7.9%.

What about the WBC [1] of the same compound?
Its WBC is 80.3 x10_2/uL.

And the ALP [1]?
The ALP was 1666.4 IU/L.

What about the ALT [1] of the same compound?
Its ALT is 44.8 IU/L.

And the AST [1]?
Its AST is 68.6 IU/L.

What about the BUN [1] of the same compound?
Its BUN is 12.8 mg/dL.

What about the CRE [1] of the same compound?
The CRE was 0.1 mg/dL.

And the Ca [1]?
The Ca was 11 mg/dL.

What about the Cl [1] of the same compound?
Its Cl is 102.6 meq/L.

And the DBIL [1]?
Its DBIL is 0 mg/dL.

And the GLC [1]?
Its GLC is 182.4 mg/dL.

What about the IP [1] of the same compound?
The IP was 9.1 mg/dL.

What about the K [1] of the same compound?
The K was 4.2 meq/L.

What about the LDH [1] of the same compound?
Its LDH is 165 IU/L.

And the Na [1]?
Its Na is 140.8 meq/L.

And the PL [1]?
Its PL is 138.6 mg/dL.

And the RALB [1]?
The RALB was 2.9 g/dL.

And the TBIL [1]?
Its TBIL is 0.002 mg/dL.

What about the TC [1] of the same compound?
Its TC is 80.8 mg/dL.

What about the TG [1] of the same compound?
The TG was 48.2 mg/dL.

And the TP [1]?
The TP was 5.7 g/dL.

And the gamma-GTP [1]?
The gamma-GTP was 1.4 IU/L.

And the Bas [2]?
Its Bas is 0%.

What about the Eos [2] of the same compound?
The Eos was 0.8%.

And the Fbg [2]?
The Fbg was 304 mg/dL.

And the Hb [2]?
The Hb was 13.6 g/dL.

And the Ht [2]?
The Ht was 40.5%.

And the Lym [2]?
The Lym was 76.2%.

What about the MCHC [2] of the same compound?
The MCHC was 33.7%.

And the MCV [2]?
Its MCV is 62.9 fL.

And the Mono [2]?
Its Mono is 2.8%.

And the PT [2]?
The PT was 16.5 s.

And the Plat [2]?
The Plat was 116.7 x10_4/uL.

And the RBC [2]?
The RBC was 643.6 x10_4/ul.

What about the Ret [2] of the same compound?
The Ret was 7.8%.

What about the WBC [2] of the same compound?
The WBC was 105.2 x10_2/uL.

And the ALP [2]?
Its ALP is 1639.8 IU/L.

What about the ALT [2] of the same compound?
Its ALT is 37.8 IU/L.

What about the AST [2] of the same compound?
The AST was 72.2 IU/L.

And the BUN [2]?
The BUN was 12.6 mg/dL.

And the CRE [2]?
Its CRE is 0.1 mg/dL.

What about the Ca [2] of the same compound?
Its Ca is 10.8 mg/dL.

And the Cl [2]?
Its Cl is 103.6 meq/L.

What about the DBIL [2] of the same compound?
The DBIL was 0 mg/dL.

And the GLC [2]?
The GLC was 196.8 mg/dL.

And the IP [2]?
Its IP is 9.5 mg/dL.

What about the K [2] of the same compound?
Its K is 4.3 meq/L.

What about the LDH [2] of the same compound?
The LDH was 211.2 IU/L.

What about the Na [2] of the same compound?
Its Na is 140.2 meq/L.

And the PL [2]?
Its PL is 141 mg/dL.

What about the RALB [2] of the same compound?
The RALB was 3 g/dL.

And the TBIL [2]?
Its TBIL is 0.008 mg/dL.

What about the TC [2] of the same compound?
Its TC is 79.2 mg/dL.

And the TG [2]?
Its TG is 68.4 mg/dL.

What about the TP [2] of the same compound?
The TP was 5.5 g/dL.

What about the gamma-GTP [2] of the same compound?
The gamma-GTP was 1 IU/L.

And the Bas [3]?
Its Bas is 0%.

And the Eos [3]?
The Eos was 0.8%.

What about the Fbg [3] of the same compound?
Its Fbg is 312.8 mg/dL.

And the Hb [3]?
The Hb was 13 g/dL.

And the Ht [3]?
The Ht was 39.1%.

What about the Lym [3] of the same compound?
Its Lym is 81.4%.

And the MCHC [3]?
The MCHC was 33.3%.

And the MCV [3]?
The MCV was 62.3 fL.

And the Mono [3]?
Its Mono is 2.6%.

And the Neu [3]?
Its Neu is 13.8%.

And the Plat [3]?
The Plat was 119.2 x10_4/uL.

And the RBC [3]?
The RBC was 627.8 x10_4/ul.

What about the Ret [3] of the same compound?
Its Ret is 8%.

What about the WBC [3] of the same compound?
Its WBC is 95.1 x10_2/uL.

And the ALP [3]?
Its ALP is 1434.4 IU/L.

What about the ALT [3] of the same compound?
The ALT was 38.4 IU/L.

What about the AST [3] of the same compound?
The AST was 70.6 IU/L.

And the BUN [3]?
The BUN was 11.8 mg/dL.

And the CRE [3]?
The CRE was 0.2 mg/dL.

What about the Ca [3] of the same compound?
Its Ca is 10.7 mg/dL.

And the Cl [3]?
The Cl was 104 meq/L.

What about the DBIL [3] of the same compound?
Its DBIL is 0.004 mg/dL.

What about the GLC [3] of the same compound?
The GLC was 185.4 mg/dL.

What about the IP [3] of the same compound?
The IP was 9.4 mg/dL.

And the K [3]?
The K was 4.2 meq/L.

What about the LDH [3] of the same compound?
The LDH was 177.2 IU/L.

And the Na [3]?
Its Na is 140.4 meq/L.

What about the PL [3] of the same compound?
The PL was 129 mg/dL.

And the RALB [3]?
The RALB was 3 g/dL.

And the TBIL [3]?
The TBIL was 0.01 mg/dL.

And the TC [3]?
Its TC is 74.4 mg/dL.

What about the TG [3] of the same compound?
Its TG is 52.2 mg/dL.

And the TP [3]?
Its TP is 5.5 g/dL.

What about the gamma-GTP [3] of the same compound?
Its gamma-GTP is 1.2 IU/L.

What about the Bas [4] of the same compound?
Its Bas is 0%.

And the Eos [4]?
Its Eos is 1%.

What about the Fbg [4] of the same compound?
Its Fbg is 327.2 mg/dL.

And the Hb [4]?
Its Hb is 13.2 g/dL.

What about the Ht [4] of the same compound?
The Ht was 39.3%.

What about the Lym [4] of the same compound?
The Lym was 81.2%.

And the MCHC [4]?
The MCHC was 33.6%.

What about the MCV [4] of the same compound?
Its MCV is 63.3 fL.

And the Mono [4]?
Its Mono is 2.6%.

What about the Neu [4] of the same compound?
Its Neu is 14%.

What about the PT [4] of the same compound?
The PT was 16.1 s.

What about the Plat [4] of the same compound?
The Plat was 120.2 x10_4/uL.

And the RBC [4]?
The RBC was 621.2 x10_4/ul.

What about the Ret [4] of the same compound?
The Ret was 7.5%.

And the WBC [4]?
The WBC was 115.4 x10_2/uL.

And the ALP [4]?
The ALP was 1844 IU/L.

And the ALT [4]?
Its ALT is 45 IU/L.

What about the AST [4] of the same compound?
The AST was 70 IU/L.

And the BUN [4]?
The BUN was 15.6 mg/dL.

And the CRE [4]?
Its CRE is 0.2 mg/dL.

What about the Ca [4] of the same compound?
The Ca was 10.6 mg/dL.

And the Cl [4]?
Its Cl is 104.2 meq/L.

And the DBIL [4]?
The DBIL was 0 mg/dL.

And the GLC [4]?
The GLC was 197.2 mg/dL.

And the IP [4]?
The IP was 8.2 mg/dL.

What about the K [4] of the same compound?
Its K is 4.3 meq/L.

What about the LDH [4] of the same compound?
Its LDH is 200 IU/L.

And the Na [4]?
The Na was 140.4 meq/L.

What about the PL [4] of the same compound?
The PL was 147.6 mg/dL.

What about the RALB [4] of the same compound?
Its RALB is 3 g/dL.

And the TBIL [4]?
Its TBIL is 0.002 mg/dL.

And the TC [4]?
Its TC is 74.6 mg/dL.

What about the TG [4] of the same compound?
Its TG is 104 mg/dL.

What about the TP [4] of the same compound?
Its TP is 5.5 g/dL.

And the gamma-GTP [4]?
The gamma-GTP was 1.4 IU/L.

And the APTT (100 mg/kg, 3 h, dose level Low)?
The APTT was 22.6 s.
